Data: US9511058B2, “Methods for using carboxamide, sulfonamide and amine compounds” (Rigel Pharmaceuticals, Inc., priority 2010, dated 2016)

Biological target: AMPK
Test: AMPK activation, enzyme-linked immunosorbent assay
Type: biochemical
[1] = compounds of Table 5 (Table 10)

Structure (SMILES)	EC50 (compounds of Table 1 (Table 6)) [µM]	EC50 [1] [µM]	also measured
O=C(N[C@H]1CCN(Cc2ccc(F)cc2)C1)c1ccc(C(=O)N2CCN(c3ccc(Cl)cc3)CC2)cn1 [4-4, (S)-5-(4-(4-chlorophenyl)piperazine-1-carbonyl)-N-(1-(4-fluorobenzyl)pyrrolidin-3-yl)picolinamide]			EC50 (compounds of Table 4 (Table 9)): 1 to 5 µM
N#Cc1ccc(CN2CC[C@H](NC(=O)c3ccc(OC4CCN(c5ccc(C(F)(F)F)cc5)CC4)cn3)C2)cc1 [1-31, (S)-N-(1-(4-cyanobenzyl)pyrrolidin-3-yl)-5-(1-(4-(trifluoromethyl)phenyl)piperidin-4-yloxy)picolinamide]	< 0.1		
O=C(NC1CCN(Cc2ccccn2)CC1)c1cc2ccc(OC3CCN(c4ccc(C(F)(F)F)cc4)CC3)cc2o1 [1-93, N-(1-(pyridin-2-ylmethyl)piperidin-4-yl)-6-(1-(4-(trifluoromethyl)phenyl)piperidin-4-yloxy)benzofuran-2-carboxamide]	0.1 to 0.5		
O=C(NC1CCN(Cc2ccncc2)CC1)c1ccc2[nH]c3c(c2c1)CN(Cc1ccc(C(F)(F)F)cc1)CC3 [2-50, N-(1-(pyridin-4-ylmethyl)piperidin-4-yl)-2-(4-(trifluoromethyl)benzyl)-2,3,4,5-tetrahydro-1H-pyrido[4,3-b]indole-8-carboxamide]			EC50 (compounds of Table 2 (Table 7)): < 0.5 µM
N#Cc1ccc(CN2CC(NC(=O)c3ccc(OC4CCN(c5ccc(C(F)(F)F)cc5)CC4)cn3)C2)cc1 [1-41, N-(1-(4-cyanobenzyl)azetidin-3-yl)-5-(1-(4 (trifluoromethyl)phenyl)piperidin-4-yloxy)picolinamide]	0.1 to 0.5		
O=C(c1ccc(F)cc1)N1CCC(NS(=O)(=O)c2ccc(OC3CCN(c4ccc(C(F)(F)F)cc4)CC3)nc2)CC1 [1-60, N-(1-(4-fluorobenzoyl)piperidin-4-yl)-6-(1-(4-(trifluoromethyl)phenyl)piperidin-4-yloxy)pyridine-3-sulfonamide]	> 10		
N#Cc1ccc(CN2CCC(NC(=O)c3ccc4[nH]c5c(c4c3)CN(S(=O)(=O)c3ccc(C#N)cc3)CC5)CC2)cc1 [2-25, N-(1-(4-cyanobenzyl)piperidin-4-yl)-2-(4-cyanophenylsulfonyl)-2,3,4,5-tetrahydro-1H-pyrido[4,3-b] indole-8-carboxamide]			EC50 (compounds of Table 2 (Table 7)): 10 to 50 µM
O=C(NC1CCN(S(=O)(=O)c2cccc(C(F)(F)F)c2)CC1)c1ccc2[nH]c3c(c2c1)CN(Cc1ccc(C(F)(F)F)cc1)CC3 [2-30, 2-(4-(trifluoromethyl)benzyl)-N-(1-(3-(trifluoromethyl)phenylsulfonyl)piperidin-4-yl)-2,3,4,5-tetrahydro-1H-pyrido[4,3-b]indole-8-carboxamide]			EC50 (compounds of Table 2 (Table 7)): 1 to 5 µM
O=C(c1ccc(F)cc1)N1CC2CC1CN2C(=O)c1nc2ccc(OC3CCN(c4ccc(C(F)(F)F)cc4)CC3)cc2o1 (stereo not drawn) [3-13, (5-(4-fluorobenzoyl)-2,5-diazabicyclo[2.2.1]heptan-2-yl)(6-(1-(4-(trifluoromethyl)phenyl)piperidin-4-yloxy)benzo[d]oxazol-2-yl)methanone]			EC50 (compounds of Table 3 (Table 8)): < 0.1 µM
O=C(NC1CCN(Cc2c[nH]cn2)CC1)c1ccc(OC2CCN(c3ccc(C(F)(F)F)cc3)CC2)cn1 [1-48, N-(1-((1H-imidazol-4-yl)methyl)piperidin-4-yl)-5-(1-(4-(trifluoromethyl)phenyl)piperidin-4-yloxy)picolinamide]	1 to 5		
CC(C)(C)OC(=O)N1CCC(NC(=O)c2cc3cc(OC4CCN(c5ccc(C(F)(F)F)cc5)CC4)ccc3s2)CC1 [1-149, tert-butyl 4-(5-(1-(4-(trifluoromethyl)phenyl)piperidin-4-yloxy)benzo[b]thiophene-2-carboxamido)piperidine-1-carboxylate]	< 0.1		
CC(C)(C)OC(=O)N1CCC(NC(=O)c2ccc3[nH]c4c(c3c2)CN(Cc2ccc(C(F)(F)F)cc2)CC4)CC1 [2-6, tert-butyl 4-(2-(4-(trifluoromethyl)benzyl)-2,3,4,5-tetrahydro-1H-pyrido[4,3-b]indole-8-carboxamido) piperidine-1-carboxylate]			EC50 (compounds of Table 2 (Table 7)): 0.5 to 1 µM
O=C(N[C@@H]1CCN(Cc2ccccn2)C1)c1cc2cc(OC3CCN(c4ccc(C(F)(F)F)cc4)CC3)ccc2o1 [1-124, (R)-N-(1-(pyridin-2-ylmethyl)pyrrolidin-3-yl)-5-(1-(4-(trifluoromethyl)phenyl)piperidin-4-yloxy)benzofuran-2-carboxamide]	1 to 5		
CC(=O)n1c2c(c3cc(C(=O)NC4CCN(Cc5cccnc5)CC4)ccc31)CN(Cc1ccc(C(F)(F)F)cc1)CC2 [2-20, 5-acetyl-N-(1-(pyridin-3-ylmethyl)piperidin-4-yl)-2-(4-(trifluoromethyl)benzyl)-2,3,4,5-tetrahydro-1H-pyrido[4,3-b]indole-8-carboxamide]			EC50 (compounds of Table 2 (Table 7)): 1 to 5 µM
N#Cc1cccc(CN2CCC(NC(=O)c3cc4ccc(OC5CCN(c6ccc(C(F)(F)F)cc6)CC5)cc4s3)CC2)c1 [1-145, N-(1-(3-cyanobenzyl)piperidin-4-yl)-6-(1-(4-(trifluoromethyl)phenyl)piperidin-4-yloxy)benzo[b]thiophene-2-carboxamide]	0.1 to 0.5		
CC(C)(C)OC(=O)N1CCC(NC(=O)c2cc(OC3CCN(c4ccc(C(F)(F)F)cc4)CC3)ccn2)CC1 [1-12, tert-butyl 4-(4-(1-(4-(trifluoromethyl)phenyl)piperidin-4-yloxy)picolinamido)piperidine-1-carboxylate]	0.5 to 1		
O=C(NC1CCN(C(=O)c2ccncc2)CC1)c1ccc2[nH]c3c(c2c1)CN(Cc1ccc(C(F)(F)F)cc1)CC3 [2-51, N-(1-isonicotinoyl-piperidin-4-yl)-2-(4-(trifluoromethyl)benzyl)-2,3,4,5-tetrahydro-1H-pyrido [4,3-b]indole-8-carboxamide]			EC50 (compounds of Table 2 (Table 7)): 0.5 to 1 µM
N#Cc1ccccc1CN1CCC(NC(=O)c2cc3ccc(OC4CCN(c5ccc(OC(F)(F)F)cc5)CC4)cc3o2)CC1 [1-97, N-(1-(2-cyanobenzyl)piperidin-4-yl)-6-(1-(4-(trifluoromethoxy)phenyl)piperidin-4-yloxy)benzofuran-2-carboxamide]	< 0.1		
O=C(NC1CCN(Cc2ccncc2)CC1)c1nc2ccc(OC3CCN(c4ccc(C(F)(F)F)cc4)CC3)cc2o1 [3-3, N-(1-(pyridin-4-ylmethyl)piperidin-4-yl)-6-(1-(4-(trifluoromethyl)phenyl)piperidin-4-yloxy)benzo[d]oxazole-2-carboxamide]			EC50 (compounds of Table 3 (Table 8)): < 0.1 µM
N#Cc1cccc(CN2CCC(NS(=O)(=O)c3ccc(OC4CCN(c5ccc(C(F)(F)F)cc5)CC4)nc3)CC2)c1 [1-57, N-(1-(3-cyanobenzyl)piperidin-4-yl)-6-(1-(4-(trifluoromethyl)phenyl)piperidin-4-yloxy)pyridine-3-sulfonamide]	0.5 to 1		
O=C(N[C@H]1CCN(Cc2ccncc2)C1)c1cc2cc(OC3CCN(Cc4ccc(Cl)cc4)CC3)ccc2o1 [1-129, (S)-5-(1-(4-chlorobenzyl)piperidin-4-yloxy)-N-(1-(pyridin-4-ylmethyl)pyrrolidin-3-yl)benzofuran-2-carboxamide]	1 to 5		
O=C(N[C@H]1CCN(Cc2ccncc2)C1)c1ccc(OC2CCN(c3ccc(C(F)(F)F)cc3)CC2)cn1 [1-30, (S)-N-(1-(pyridin-4-ylmethyl)pyrrolidin-3-yl)-5-(1-(4-(trifluoromethyl)phenyl)piperidin-4-yloxy)picolinamide]	< 0.1		

Further lines, with some results ahead:

EC50 (compounds of Table 1 (Table 6)) [µM]	EC50 [1] [µM]	Structure (SMILES)	also measured
	< 1	Cc1ccc(CN2CCC(Oc3ccc(C(=O)NC4CCN(Cc5ccccc5)CC4)cc3F)CC2)cc1 [5-42, N-(1-benzylpiperidin-4-yl)-3-fluoro-4-(1-(4-methylbenzyl)piperidin-4-yloxy)benzamide]	
	< 1	N#Cc1ccc(CN2CCC(Oc3c(Cl)cc(C(=O)NC4CCN(Cc5ccccc5)CC4)cc3Cl)CC2)cc1 [5-77, N-(1-benzylpiperidin-4-yl)-3,5-dichloro-4-(1-(4-cyanobenzyl)piperidin-4-yloxy)benzamide]	
	< 1	CC(C)(C)OC(=O)N1CCC(NC(=O)c2ccc(OC3CCN(Cc4ccc(C#N)cc4)CC3)cc2)CC1 [5-78, tert-butyl 4-(4-(1-(4-cyanobenzyl)piperidin-4-yloxy)benzamido)piperidine-1-carboxylate]	
	< 1	O=C(NC1CCN(Cc2ccc(F)cc2)CC1)c1ccc(OC2CCN(c3ccc(C(F)(F)F)cc3)CC2)c(F)c1 [5-27, 3-fluoro-N-(1-(4-fluorobenzyl)piperidin-4-yl)-4-(1-(4-(trifluoromethyl)phenyl)piperidin-4-yloxy)benzamide]	
	1 to 10	O=C(NC1CCN(Cc2ccccc2)CC1)c1cccc(OC2CCN(Cc3ccc(C(F)(F)F)cc3)CC2)c1 [5-52, N-(1-benzylpiperidin-4-yl)-3-(1-(4-(trifluoromethyl)benzyl)piperidin-4-yloxy)benzamide]	
	< 1	O=C(NC1CCN(Cc2ccc(Cl)cc2)CC1)c1ccc(OC2CCN(Cc3ccc(Cl)cc3)CC2)c(F)c1 [5-72, N-(1-(4-chlorobenzyl)piperidin-4-yl)-4-(1-(4-chlorobenzyl)piperidin-4-yloxy)-3-fluorobenzamide]	
	< 1	O=C(NC1CCN(Cc2ccccc2)CC1)c1cc(Cl)c(OC2CCN(Cc3cccc(C(F)(F)F)c3)CC2)c(Cl)c1 [5-62, N-(1-benzylpiperidin-4-yl)-3,5-dichloro-4-(1-(3-(trifluoromethyl)benzyl)piperidin-4-yloxy)benzamide]	
	10 to 20	O=C(c1ccc(OC2CCN(Cc3ccccc3)CC2)cc1)N1CCN(Cc2ccccn2)CC1 [5-105, (4-(1-benzylpiperidin-4-yloxy)phenyl)(4-(pyridin-2-ylmethyl)piperazin-1-yl)methanone]	
	1 to 10	O=C(NC1CCN(Cc2ccccc2)CC1)c1ccc(OC2CCN(C(=O)c3ccc(F)cc3)CC2)c(Cl)c1 [5-22, N-(1-benzylpiperidin-4-yl)-3-chloro-4-(1-(4-fluorobenzoyl)piperidin-4-yloxy)benzamide]	
	< 1	N#Cc1ccc(CN2CCC(Oc3ccc(C(=O)NC4CCN(Cc5ccccc5)CC4)cc3Cl)CC2)cc1 [5-67, N-(1-benzylpiperidin-4-yl)-3-chloro-4-(1-(4-cyanobenzyl)piperidin-4-yloxy)benzamide]	
	< 1	O=C(NC1CCN(Cc2ccccc2)CC1)c1ccc(OC2CCN(Cc3cccc(C(F)(F)F)c3)CC2)c(F)c1 [5-59, N-(1-benzylpiperidin-4-yl)-3-fluoro-4-(1-(3-(trifluoromethyl)benzyl)piperidin-4-yloxy)benzamide]	
